Here are results for 7 substances from PMC9788040, “Molecular Diversity of Linear Peptides Revealed by Transcriptomic Analysis of the Venom Gland of the Spider Lycosa poonaensis” (Toxins, 2022).

Where no end group is shown, it is not given here.

Series [1] deals with Escherichia coli NBRC 3972. Description: Antibacterial activity, liquid growth inhibition assay. It counts as cell-based. Conditions: E. coli NBRC 3972, LB medium, overnight 37 °C, A595; MIC as interval [a]–[b]; at least three experiments in duplicate. The method, then: (§1) Antibacterial activity was measured using the Gram-negative bacteria Escherichia coli NBRC 3972 and the Gram-positive bacteria Staphylococcus aureus NBRC 13276 and Bacillus subtilis NBRC 3009 (NITE Biological Resource Center, Chiba, Japan), using a liquid growth inhibition assay. Each bacteria strain was grown in a liquid LB medium (1% tryptone, 0.5% yeast extract, and 1% NaCl). Aliquots of each sample (10 µL) were incubated with 90 µL of a suspension of a mid-logarithmic phase culture of bacteria in a 96-well plate at a starting absorbance of A595 = 0.001 in the LB medium; the incubation occurred overnight at 37 °C with continuous shaking. Growth inhibition was monitored by measuring the absorbance at 595 nm using a Benchmark microplate reader (Bio-Rad, Hercules, CA, USA). Experiments were repeated at least three times, each time in duplicate. Minimal inhibitory concentrations (MICs) are expressed as the interval of concentrations [a]–[b], where [a] is the highest concentration at which bacteria still grow and [b] is the lowest concentration causing growth inhibition.

Series [2] deals with Bacillus subtilis NBRC 3009. The description is as above. It counts as cell-based. Particulars: B. subtilis NBRC 3009, LB medium, overnight 37 °C, A595; MIC as interval [a]–[b]; at least three experiments in duplicate. The method, then: as §1
Series [3] concerns Staphylococcus aureus NBRC 13276. The series is described as above. It counts as cell-based. Particulars: S. aureus NBRC 13276, LB medium, overnight 37 °C, A595; MIC as interval [a]–[b]; at least three experiments in duplicate. As to the method: as §1
Series [4] is described as follows: Secondary structure estimation by CD spectroscopy (DichroWeb). It is filed as physicochemical. Particulars: 25 °C, DichroWeb CDSSTR, reference dataset 4. The method, then:
CD spectra were recorded on a J-820 spectropolarimeter (Jasco, Tokyo, Japan). The spectra were measured between 190–260 nm (in 0.2-nm steps) at 25 °C with a 1-mm-pathlength cell. Samples were dissolved in a 0.2 M phosphate buffer (pH 7.0) or 50% TFE in a 0.2 M phosphate buffer (pH 7.0) at a concentration of 10 µM. Five scans were averaged for each sample. The percentages of secondary structures were estimated from the spectra using the DichroWeb server. The helical wheel projection was performed using the online software HeliQuest (https://heliquest.ipmc.cnrs.fr, accessed on 14 July 2022).

The test system of series [5] is sheep red blood cells (sRBCs). Nature of the series: Hemolytic activity. It is filed as cell-based. Particulars: sheep RBC 4% (v/v) in PBS pH 7.2, 1 h 37 °C, absorbance 450 nm; 3 experiments in triplicate; read-out: Hemolysis EC50. The method, then: Fresh sheep red blood cells (sRBCs) were washed three times with PBS (35 mM phosphate buffer and 150 mM NaCl, pH 7.2) through centrifugation at 2000× g for 5 min and resuspended in PBS. Specifically, aliquots of each sample in PBS (50 μL) were added to 50 μL of sRBC suspension [4% (v/v) in the final] in a microtube and incubated for 1 h at 37 °C; then, the samples were centrifuged at 2000× g for 5 min. The supernatant was transferred to a 96-well plate to monitor hemoglobin release, which was done by measuring the absorbance of the supernatant at 450 nm using a Benchmark microplate reader. PBS and 0.1% Triton X-100 were used as the negative and positive controls, respectively. The experiments were repeated 3 times, each time in triplicate. In the equation to calculate the hemolysis rate, AP refers to peptide sample absorbance, AT refers to 0.1% Triton X-100 positive control absorbance, and A0 refers to PBS sample negative control absorbance. Hemolysis rate (%)=Ap−A0/AT−A0×100

Series [6] has as its system crickets (Acheta domesticus). Nature of the series: Insect toxicity (paralysis after injection). It is filed as in vivo. Particulars: injection into abdominal region, paralysis counted 30 min after injection, 10 insects per measurement, parentheses = 95% confidence intervals. The method, then:
Insect toxicity was tested on crickets (Acheta domesticus, 50 ± 5 mg body weight) by injecting 1–2 µL of each sample dissolved in distilled water into their abdominal region. Distilled water was injected as a control. For each measurement, 10 insects were used, and the number of paralyzed insects was counted 30 min after injection. The doses required to induce paralysis in half of the test animals (PD50) were determined using the statistical software PRISM (GraphPad Software, La Jolla, CA, USA).

Where [7] appears, read: solvent I: 0.2 M phosphate buffer pH 7.0, 10 µM.
The mark [8] stands for this setting: solvent II: 50% TFE in 0.2 M phosphate buffer pH 7.0, 10 µM.

In the case of “AGLGKIGALIKKAYAIYKAKAA-NH2 [M-lycotoxin-Lp5b]”, the “Antibacterial Activity MIC, E. coli” value in series [1] lay within 1.25 to 2.5 µM. Also, the “Antibacterial Activity MIC, B. subtilis” value in series [2] was 1.25 to 2.5 µM. Besides, in series [3], the “Antibacterial Activity MIC, S. aureus” value is 50 to 100 µM. In addition, in series [4] (setting [7]), the “Percentage of Secondary Structure, Turns” value is 25%; the “Percentage of Secondary Structure, Unordered” value (“Percentage … Unordered” below) is on record as 34%; the “Percentage of Secondary Structure, α-Helix” value (“Percentage … α-Helix” for short) is recorded as 7%; the “Percentage of Secondary Structure, β-Sheet” value (“Percentage … β-Sheet” below) is reported as 33%. Further, in series [4] (setting [8]), the “Percentage of Secondary Structure, Turns” value is reported as 11%; the “Percentage … Unordered” value is 23%; the “Percentage … α-Helix” value was 51%; the “Percentage … β-Sheet” value is reported as 14%. Also, in series [5], the 50% effective concentration (EC50) was over 100 µM. The “Insect Toxicity PD50” value in series [6] is 44 (12.2–160) µg/g Weight.

For the substance “MVWLLPLKFLASHVAMEQLSKLGSKIATKL-NH2 [M-lycotoxin-Lp1a]”, the “Antibacterial Activity MIC, E. coli” value in series [1] was 6.2 to 12.5 µM. In addition, in series [2], the “Antibacterial Activity MIC, B. subtilis” value was in the range of 12.5 to 25 µM. For the same substance, the “Antibacterial Activity MIC, S. aureus” value in series [3] was in the range of 12.5 to 25 µM. In series [5], the concentration for a half-maximal effect (EC50) is over 100 µM.

On to “SKWKAFLAKMKEIASEAL-NH2 [M-lycotoxin-Lp6]”, for which the “Antibacterial Activity MIC, E. coli” value in series [1] lay in the range of 5 to 12.5 µM. Moreover, the “Antibacterial Activity MIC, B. subtilis” value in series [2] lay within 5 to 12.5 µM. For the same substance, the “Antibacterial Activity MIC, S. aureus” value in series [3] is on record as over 100 µM. The concentration giving a half-maximal response (EC50) in series [5] is over 100 µM.

For the substance “VIWLPALKFLASHIAMEQLSKL-NH2 [M-lycotoxin-Lp1b]”, the “Antibacterial Activity MIC, E. coli” value in series [1] is 50 to 100 µM. The “Antibacterial Activity MIC, B. subtilis” value in series [2] lay in the range of 6.2 to 12.5 µM. Also, the “Antibacterial Activity MIC, S. aureus” value in series [3] fell in the range of 3.1 to 6.2 µM. Further, in series [5], the EC50 was over 100 µM.

For “IWLTALKFIGKNLGKHFAKQQLSKL-NH2 [M-lycotoxin-Lp3a]”, the “Antibacterial Activity MIC, E. coli” value in series [1] lay within 0.8 to 1.6 µM. For the same substance, the “Antibacterial Activity MIC, B. subtilis” value in series [2] fell in the range of 0.8 to 1.6 µM. Further, the “Antibacterial Activity MIC, S. aureus” value in series [3] was 0.4 to 0.8 µM. Further, in series [5], the EC50 is over 100 µM.

As to “AGLGKIGAFIKKAYAIYKAKAA-NH2 [M-lycotoxin-Lp5a]”, the “Antibacterial Activity MIC, E. coli” value in series [1] lay in the range of 1.25 to 2.5 µM. In addition, the “Antibacterial Activity MIC, B. subtilis” value in series [2] was 1.25 to 2.5 µM. Also, the “Antibacterial Activity MIC, S. aureus” value in series [3] is 50 to 100 µM. For the same substance, in series [4] (setting [7]), the “Percentage of Secondary Structure, Turns” value is on record as 28%; the “Percentage … Unordered” value is reported as 33%; the “Percentage … α-Helix” value was 15%; the “Percentage … β-Sheet” value is 23%. Also, in series [4] (setting [8]), the “Percentage of Secondary Structure, Turns” value is recorded as 10%; the “Percentage … Unordered” value was 18%; the “Percentage … α-Helix” value is given as 55%; the “Percentage … β-Sheet” value is given as 17%. For the same substance, in series [5], the EC50 is over 100 µM. Besides, the “Insect Toxicity PD50” value in series [6] is on record as 50 (18.3–138) µg/g Weight.

Consider “KIKWFKAMKSIAKYVAKKQLKKHLGGEN [M-lycotoxin-Lp4]”, for which, in series [4] (setting [7]), the “Percentage of Secondary Structure, Turns” value is 26%; the “Percentage … Unordered” value was 33%; the “Percentage … α-Helix” value is recorded as 8%; the “Percentage … β-Sheet” value is listed as 33%. In series [4] (setting [8]), the “Percentage of Secondary Structure, Turns” value is 13%; the “Percentage … Unordered” value was 23%; the “Percentage … α-Helix” value is 51%; the “Percentage … β-Sheet” value is listed as 11%. Moreover, the “Insect Toxicity PD50” value in series [6] is 10 (5.8–17.1) µg/g Weight.
